Here are results for five molecules from patent US9474790B2, “Stable, protracted GLP-1/glucagon receptor co-agonists for medical use” (Novo Nordisk A/S, priority 2013, dated 2016).

Numbered stars: 1 amine (or outer) side, 2 acyl side, 3 side chain; on linkers, the order of the positions; unused ones are H or OH. Bridge positions count the residues as written; N and C are the ends. Square brackets hold non-standard residues; d marks the D form. Side chains are listed from the residue outwards. Peptide text beside a SMILES is read from it. I, II: the chains in the order shown. * marks the point of attachment. C18 diacid = O=C(O)CCCCCCCCCCCCCCCCC(=O)*; γGlu = O=C(O)[C@H](CCC(=O)[*:2])N[*:1]; Ac4c = NC1(C(=O)O)CCC1; AEEA = NCCOCCOCC(=O)O; Aib = CC(C)(N)C(=O)O

Data set [1] in a line: Chemical stability assessment by RP-UPLC. The format is physicochemical. To be noted: 333 μM, 8 mM phosphate buffer pH 7.3, 37° C. vs 5° C. The method in brief: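 Purity loss = (purity after 14 days at 5° C. minus that at 37° C.) relative to the 5° C. value, purity being main-peak area % by RP-UPLC with UV at 215 nm. Samples were 333 μM in 8 mM phosphate, pH 7.3; gradient adjusted for outlying retention times.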

Data set [2] can be described thus: Thioflavin T (ThT) fibrillation assay for physical stability. The format is physicochemical. To be noted: 250 μM in 10 mM HEPES buffer, pH 7.5, 37° C., shaking 960 rpm. The method in brief:
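Fibrillation was followed by ThT (1 μM) fluorescence every 20 min, 444/485 nm, for 250 μM peptide in 10 mM HEPES pH 7.5 shaken at 960 rpm, 37° C. Lag time (t0−2τ) and apparent rate constant (1/τ) come from a sigmoidal fit. Recovery is % of initial concentration remaining soluble after centrifugation and filtration (RP-HPLC).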

With `CC(C)C[C@H](NC(=O)[C@H](Cc1ccc(O)cc1)NC(=O)[C@H](CCCCN)NC(=O)[C@H](CO)NC(=O)[C@H](CC(C)C)NC(=O)[C@H](CC(=O)O)NC(=O)[C@H](CO)NC(=O)[C@@H](NC(=O)[C@H](Cc1ccccc1)NC(=O)[C@@H](NC(=O)CNC(=O)[C@H](CCC(N)=O)NC(=O)C1(NC(=O)[C@@H](N)Cc2c[nH]cn2)CCC1)[C@@H](C)O)[C@@H](C)O)C(=O)N[C@@H](CCC(=O)O)C(=O)N[C@@H](CO)C(=O)N[C@@H](CCCCN)C(=O)N[C@@H](CCCNC(=N)N)C(=O)N[C@@H](C)C(=O)N[C@@H](CCCNC(=N)N)C(=O)N[C@@H](CCC(=O)O)C(=O)N[C@@H](Cc1ccccc1)C(=O)N[C@H](C(=O)N[C@@H](CCC(N)=O)C(=O)N[C@@H](Cc1c[nH]c2ccccc12)C(=O)N[C@@H](CC(C)C)C(=O)N[C@@H](CC(C)C)C(=O)N[C@@H](CCCCNC(=O)CNC(=O)[C@H](CO)NC(=O)[C@H](CCC(=O)O)NC(=O)CNC(=O)[C@H](CO)NC(=O)CC[C@H](NC(=O)CC[C@H](NC(=O)CCCCCCCCCCCCCCCCC(=O)O)C(=O)O)C(=O)O)C(=O)N[C@H](C(N)=O)[C@@H](C)O)C(C)C` [Example 36, N^ε28-[2-[[(2S)-2-[[(2S)-4-carboxy-2-[[2-[[(2S)-2-[[(4S)-4-carboxy-4-[[(4S)-4-carboxy-4-(17-carboxyheptadecanoylamino)butanoyl]amino]butanoyl]amino]-3-hydroxypropanoyl]amino]acetyl]amino]butanoyl]amino]-3-hydroxypropanoyl]amino]acetyl]-[Acb2,Leu10,Glu15,Lys17, Arg20,Glu21,Leu27,Lys28]-Glucagon amide] (I: H-H[Ac4c]QGTFTSDLSKYLESKRAREFVQWLLKT-NH2 / II: {C18 diacid-γGlu-γGlu}-SGESG; amide I:28-II:C; N-terminus assumed), in data set [1], the “Purity loss; 14 days at 37° C.” value was 2%. For the same molecule, the THT assay Lag time (Ex. 76) in data set [2] is 45 h.
Taken in the same sequence, the figures for `CC(C)C[C@H](NC(=O)[C@H](Cc1ccc(O)cc1)NC(=O)[C@H](CCCCN)NC(=O)[C@H](CO)NC(=O)[C@H](CC(C)C)NC(=O)[C@H](CC(=O)O)NC(=O)[C@H](CO)NC(=O)[C@@H](NC(=O)[C@H](Cc1ccccc1)NC(=O)[C@@H](NC(=O)CNC(=O)[C@H](CCC(N)=O)NC(=O)C(C)(C)NC(=O)[C@@H](N)Cc1c[nH]cn1)[C@@H](C)O)[C@@H](C)O)C(=O)N[C@@H](CC(=O)O)C(=O)N[C@@H](C)C(=O)N[C@@H](CCCNC(=N)N)C(=O)N[C@@H](CCCNC(=N)N)C(=O)N[C@@H](C)C(=O)N[C@@H](CCCNC(=N)N)C(=O)N[C@@H](CCC(=O)O)C(=O)N[C@@H](Cc1ccccc1)C(=O)N[C@H](C(=O)N[C@@H](CCC(N)=O)C(=O)N[C@@H](Cc1c[nH]c2ccccc12)C(=O)N[C@@H](CC(C)C)C(=O)N[C@@H](CC(C)C)C(=O)N[C@@H](CC(N)=O)C(=O)N[C@@H](CCCCNC(=O)CC[C@H](NC(=O)CC[C@H](NC(=O)COCCOCCNC(=O)CC[C@H](NC(=O)CCCCCCCCCCCCCCCCC(=O)O)C(=O)O)C(=O)O)C(=O)O)C(N)=O)C(C)C` [Example 39, N^ε29-[(4S)-4-carboxy-4-[[(4S)-4-carboxy-4-[[2-[2-[2-[[(4S)-4-carboxy-4-(17-carboxyheptadecanoylamino)butanoyl]amino]ethoxy]ethoxy]acetyl]amino]butanoyl]amino]butanoyl]-[Aib2,Leu10,Ala16,Arg20,Glu21,Leu27,Lys29]-Glucagon amide] (H-H[Aib]QGTFTSDLSKYLDARRAREFVQWLLNK([γGlu-γGlu-AEEA-γGlu-C18 diacid])-NH2; N-terminus assumed) were 3% and 45 h.
The like results for `CC(C)C[C@H](NC(=O)[C@H](CC(C)C)NC(=O)[C@H](Cc1c[nH]c2ccccc12)NC(=O)[C@H](CCC(N)=O)NC(=O)[C@@H](NC(=O)[C@H](Cc1ccccc1)NC(=O)[C@H](CCC(=O)O)NC(=O)[C@H](CCCNC(=N)N)NC(=O)[C@H](C)NC(=O)[C@H](CCCNC(=N)N)NC(=O)[C@H](CCCNC(=N)N)NC(=O)[C@H](CO)NC(=O)[C@H](CCC(=O)O)NC(=O)[C@H](CC(C)C)NC(=O)[C@H](Cc1ccc(O)cc1)NC(=O)[C@H](CCCCN)NC(=O)[C@H](CO)NC(=O)[C@H](CC(C)C)NC(=O)[C@H](CC(=O)O)NC(=O)[C@H](CO)NC(=O)[C@@H](NC(=O)[C@H](Cc1ccccc1)NC(=O)[C@@H](NC(=O)CNC(=O)[C@H](CCC(N)=O)NC(=O)C(C)(C)NC(=O)[C@@H](N)Cc1c[nH]cn1)[C@@H](C)O)[C@@H](C)O)C(C)C)C(=O)N[C@@H](CC(N)=O)C(=O)N[C@@H](CCCCNC(=O)CC[C@H](NC(=O)CC[C@H](NC(=O)COCCOCCNC(=O)CC[C@H](NC(=O)CCCCCCCCCCCCCCCCC(=O)O)C(=O)O)C(=O)O)C(=O)O)C(N)=O` [Example 40, N^ε29-[(4S)-4-carboxy-4-[[(4S)-4-carboxy-4-[[2-[2-[2-[[(4S)-4-carboxy-4-(17-carboxyheptadecanoylamino)butanoyl]amino]ethoxy]ethoxy]acetyl]amino]butanoyl]amino]butanoyl]-[Aib2,Leu10,Glu15,Arg20,Glu21,Leu27,Lys29]-Glucagon amide] (H-H[Aib]QGTFTSDLSKYLESRRAREFVQWLLNK([γGlu-γGlu-AEEA-γGlu-C18 diacid])-NH2; N-terminus assumed) were, in that order, 2% and 40 h.
The like results for `CC(C)C[C@H](NC(=O)[C@H](Cc1ccc(O)cc1)NC(=O)[C@H](CCCCN)NC(=O)[C@H](CO)NC(=O)[C@H](CC(C)C)NC(=O)[C@H](CC(=O)O)NC(=O)[C@H](CO)NC(=O)[C@@H](NC(=O)[C@H](Cc1ccccc1)NC(=O)[C@@H](NC(=O)CNC(=O)[C@H](CCC(N)=O)NC(=O)C(C)(C)NC(=O)[C@@H](N)Cc1c[nH]cn1)[C@@H](C)O)[C@@H](C)O)C(=O)N[C@@H](CCC(=O)O)C(=O)N[C@@H](CO)C(=O)N[C@@H](CCCNC(=N)N)C(=O)N[C@@H](CCCNC(=N)N)C(=O)N[C@@H](C)C(=O)N[C@@H](CCCNC(=N)N)C(=O)N[C@@H](CCC(=O)O)C(=O)N[C@@H](Cc1ccccc1)C(=O)N[C@H](C(=O)N[C@@H](CCC(N)=O)C(=O)N[C@@H](Cc1c[nH]c2ccccc12)C(=O)N[C@@H](CC(C)C)C(=O)N[C@@H](CC(C)C)C(=O)N[C@@H](CCCCNC(=O)CC[C@H](NC(=O)CC[C@H](NC(=O)CC[C@H](NC(=O)CCCCCCCCCCCCCCCCC(=O)O)C(=O)O)C(=O)O)C(=O)O)C(=O)N[C@H](C(N)=O)[C@@H](C)O)C(C)C` [Example 41, N^ε28-[(4S)-4-carboxy-4-[[(4S)-4-carboxy-4-[[(4S)-4-carboxy-4-(17-carboxyheptadecanoylamino)butanoyl]amino]butanoyl]amino]butanoyl]-[Aib2,Leu10,Glu15, Arg20,Glu21,Leu27,Lys28]-Glucagon amide] (H-H[Aib]QGTFTSDLSKYLESRRAREFVQWLLK([γGlu-γGlu-γGlu-C18 diacid])T-NH2; N-terminus assumed) were, in that order, 1% and 45 h.
As for `CC(C)C[C@H](NC(=O)[C@H](Cc1ccc(O)cc1)NC(=O)[C@H](CCCCN)NC(=O)[C@H](CO)NC(=O)[C@H](CC(C)C)NC(=O)[C@H](CC(=O)O)NC(=O)[C@H](CO)NC(=O)[C@@H](NC(=O)[C@H](Cc1ccccc1)NC(=O)[C@@H](NC(=O)CNC(=O)[C@H](CCC(N)=O)NC(=O)C(C)(C)NC(=O)[C@@H](N)Cc1c[nH]cn1)[C@@H](C)O)[C@@H](C)O)C(=O)N[C@@H](CCC(=O)O)C(=O)N[C@@H](CO)C(=O)N[C@@H](CCCNC(=N)N)C(=O)N[C@@H](CCCNC(=N)N)C(=O)N[C@@H](C)C(=O)N[C@@H](CCCNC(=N)N)C(=O)N[C@@H](CCC(=O)O)C(=O)N[C@@H](Cc1ccccc1)C(=O)N[C@H](C(=O)N[C@@H](CCC(N)=O)C(=O)N[C@@H](Cc1c[nH]c2ccccc12)C(=O)N[C@@H](CC(C)C)C(=O)N[C@@H](CC(C)C)C(=O)N[C@@H](CCCCNC(=O)COCCOCCNC(=O)COCCOCCNC(=O)CC[C@H](NC(=O)CC[C@H](NC(=O)CC[C@H](NC(=O)CCCCCCCCCCCCCCCCC(=O)O)C(=O)O)C(=O)O)C(=O)O)C(=O)N[C@H](C(N)=O)[C@@H](C)O)C(C)C` [Example 42, N^ε28-[2-[2-[2-[[2-[2-[2-[[(4S)-4-carboxy-4-[[(4S)-4-carboxy-4-[[(4S)-4-carboxy-4-(17-carboxyheptadecanoylamino)butanoyl]amino]butanoyl]amino]butanoyl]amino]ethoxy]ethoxy]acetyl]amino]ethoxy]ethoxy]acetyl]-[Aib2,Leu10,Glu15,Arg20,Glu21,Leu27,Lys28]-Glucagon amide] (H-H[Aib]QGTFTSDLSKYLESRRAREFVQWLLK([AEEA-AEEA-γGlu-γGlu-γGlu-C18 diacid])T-NH2; N-terminus assumed), in data set [1], the “Purity loss; 14 days at 37° C.” value was 3%. This molecule also showed a THT assay Lag time (Ex. 76) in data set [2] of 45 h.
